Experimental data from patent publication US20090182135A1, “Amino modifiers” (priority 2007, published 2009).
Where two headings read alike, the source gives them in different places. One block for each compound: values may come before it.

Legend:
[1] = commercially available trityl protecting groups, values stated without experiment; cited from earlier work
[2] = Stability of the amino modifier reagent in acetonitrile; assay type: physicochemical; conditions: room temperature
Protocol: The sulfoxy derivative survives conditions of polynucleotide synthesis and can either be cleaved with standard deblock solution, or left intact for an HPLC purification. […] UV quantification for release of the new protecting group is possible. Extinction coefficients (L/(mol×cm) shown in the Scheme above were measured in 2% TFA/DCM.

[3] = pKR+ determination of trityl alcohols by UV spectrophotometry in aqueous sulphuric acid solutions (Deno acidity function HR); assay type: physicochemical; conditions: for pKR+ (477 nm): absorbance at 477 nm
Excerpt: The physico-chemical properties of trityl cations have been thoroughly investigated. In 1955 Deno et al reported an empirical Acidity Function HR which allows the comparison of the stability of different trityl cations (N. C. Deno, J. J. Jaruzelski and A. Schriesheim, J. Am. Chem. Soc. 1955, 77, 3044). Using the acidity function and the methods described by Deno it is possible to evaluate the pKR+ parameter for trityl alcohol derivatives, which is a direct indication of the stability of the corresponding trityl cations.
Once the acidity function HR for a particular acidic solution is known, the pKR+ of a triarylcarbinol dissolved in that acidic solution can be calculated in a straightforward manner once the ratio [R^+]/[ROH] has been experimentally determined. Therefore, in order to determine pKR+ values in acidic solutions of known HR, the ratio [R^+]/[ROH] must be established or, what is the equivalent, the degree of ionization of the triarylcarbinol.
The [R^+]/[ROH] ratio can be determined by spectrophotometic means. In particular, for trityl derivatives, UV spectrophotometry is useful since trityl cations and their parent molecules show completely different absorption spectra in the UV region.
In general, the experimental procedure for determining pKR+ for a trityl alcohol is summarised as follows. A solution of the triaryl alcohol in question in acetic acid is prepared in a way that the final concentration of the solutions to be analysed by UV spectrometry are in the range of 10^−5 to 10^−7 molar. A constant amount of the acetic acid solution so prepared is then added to the solutions of sulphuric acid (for instance, using a micropipette) to carry out the UV spectrometry experiments. It is recommended that the values of E are measured at the λmax of the trityl cation.
Starting from the most concentrated sulphuric acid solutions, samples are prepared until it is observed that the absorbance of the samples starts to decay. In the range of concentrations prior to the decay of absorbance, the triaryl alcohol is dissolved in a sufficiently concentrated sulphuric to completely ionise it. Therefore, ε=εR. In the region of sulphuric acid concentrations in which the absorbance of the samples decays, a series of values for ε are collected.
Finally, a concentration of sulphuric acid is reached in which the absorbance at λmax is negligible (or the alcohol starts to precipitate). This indicates the end of the experiment and values for the [R^+]/[ROH] for a series of given HR are available.
The pKR+ can be determined using the equation
Using UV spectrometry, the λmax of the trityl cation was determined to be approximately 477 nm, as illustrated in FIG. 1. Absorbance values were recorded at this wavelength for different concentrations of sulphuric acid. […]

Compound: 4,4′-dimethoxytrityl [DMTr]
- pKR+ [1]: −1.24

Compound: COc1ccc(C(NCCCCCCOP(OCCC#N)N(C(C)C)C(C)C)(c2ccc(OC)cc2)c2ccc([S+](C)[O-])cc2)cc1 (stereo not shown) [DMS(O)MTr amino modifier, 6-(4,4′-dimethoxy-4″-(methylsulfinyl)tritylamino)hexylolxy-(2-cyanoethoxy) diisopropylaminophosphine]
- stability of the reagent in solution [2]: stable in acetonitrile at room temperature for at least two weeks

- pKR+ (477 nm) ([3]; H2SO4 20%): −2.7
- pKR+ (477 nm) ([3]; H2SO4 25%): −2.6
- pKR+ (477 nm) ([3]; H2SO4 30%): −2.5
- pKR+ ([3]; overall value for the trityl alcohol, UV at λmax of the trityl cation in sulphuric acid solutions): −2.6
Compound: COc1ccc(C(O)(c2ccc(C)cc2)c2ccc(C)cc2)cc1 [MDMeTrOH, 4-methoxy-4′,4″-dimethyltrityl alcohol]

Compound: monomethoxytrityl [MMTr]
- pKR+ [1]: −3.40
